Mortality data for three compounds are collected here from US20100316746A1, “Pesticidal Compound Mixtures” (Bayer CropScience AG, priority 2007, published 2010).

SMILES strings stand for the structures.

One experiment deals with Myzus persicae. Briefly: Myzus persicae-Test (sprayed cabbage leaves). It is filed as in vivo. The settings on record: 144 h, after 6 d, spray on cabbage leaves. The protocol: (§1) Solvent: 7 parts by weight of dimethylformamide Emulsifier: 2 parts by weight of alkylaryl polyglycolether
(§2) To produce a suitable preparation of active compound, 1 part by weight of active compound is mixed with the stated amount of solvent and emulsifier, and the concentrate is diluted with emulsifier-containing water to the desired concentration.
Cabbage leaves (Brassica oleracea) which are heavily infested by the green peach aphid (Myzus persicae) are treated by being sprayed with the preparation of the active compound at the desired concentration.
After the specified period of time, the mortality in % is determined. 100% means that all the aphids have been killed; 0% means that none of the aphids have been killed.

In a further experiment the test system is Phaedon cochleariae. As to the kind of experiment: Phaedon cochleariae-Test (larvae, sprayed cabbage leaves). It is filed as in vivo. The settings on record: 144 h, after 6 d, spray on cabbage leaves. The protocol:
as §1, §2
Cabbage leaves (Brassica oleracea) are treated by being sprayed with the preparation of the active compound in the desired concentration and are infested with larvae of the mustard beetle (Phaedon cochleariae) as long as the leaves are still moist.
After the specified period of time, the mortality in % is determined. 100% means that all the beetle larvae have been killed; 0% means that none of the beetle larvae have been killed.

For `CN/C(=N\[N+](=O)[O-])NCc1cnc(Cl)s1` [Clothianidin, clothianidin], the mortality at 0.8 ppm with Myzus persicae (0.8 ppm) worked out at 65%. In the experiment with Phaedon cochleariae (4 ppm), this compound yielded a mortality at 4 ppm of 55%.

In the case of `CC(C)C1CCC(Cc2ccc(Cl)cc2)C1(O)Cn1cncn1` (centres unmarked) [Ipconazole, ipconazole], the mortality at 200 ppm is 10% with Myzus persicae and 5% in the experiment on Phaedon cochleariae (200 ppm).

Turning to `COCC(=O)N(c1c(C)cccc1C)C(C)C(=O)OC` (centres unmarked) [Metalaxyl, metalaxyl], the mortality at 200 ppm with Myzus persicae amounted to 0%.
